Measured values taken from US6322962A, “Sterol-regulated Site-1 protease and assays of modulators thereof” (Board of Regents, The University of Texas System, priority 1999, dated 2001).
Blank lines part the entries; values can stand above or below the compound they belong to. Square brackets hold non-standard residues; d marks the D form. Peptide text beside a SMILES is read from it. * marks the point of attachment. Sta = CC(C)C[C@H](N)[C@@H](O)CC(=O)O; AMC = Cc1cc(=O)oc2cc(N*)ccc12; Isovaleryl = CC(C)CC(=O)*; Boc = CC(C)(C)OC(=O)*

Assays:
purified S1P(983)-C [1] = target: T1, purified S1P(983)-C (Cricetulus griseus, UniProt Q9Z2A8, T875N); test: Fluorogenic peptide assay for S1P activity (cleavage of MCA-conjugated peptides); format: biochemical, hamster; details: for Relative Activity: 100 μM peptide-MCA, 3 μg S1P(983)-C, 37° C., 5 h, Ac-VFRSLK-MCA set at 1.0; for cleavage of the peptide: result in words
T1 construct: Truncated S1P (amino acids 1-983); GGR linker (NotI site); made in house; host or cells: SRD-12B cells (mutant CHO cells lacking S1P) stably transfected with pCMV-S1P(983)-Myc-His (TR-3117, 'S1P(983) cells'); secreted into the medium and purified on Ni-NTA
T1 sequence (Q9Z2A8 187-983 T875N): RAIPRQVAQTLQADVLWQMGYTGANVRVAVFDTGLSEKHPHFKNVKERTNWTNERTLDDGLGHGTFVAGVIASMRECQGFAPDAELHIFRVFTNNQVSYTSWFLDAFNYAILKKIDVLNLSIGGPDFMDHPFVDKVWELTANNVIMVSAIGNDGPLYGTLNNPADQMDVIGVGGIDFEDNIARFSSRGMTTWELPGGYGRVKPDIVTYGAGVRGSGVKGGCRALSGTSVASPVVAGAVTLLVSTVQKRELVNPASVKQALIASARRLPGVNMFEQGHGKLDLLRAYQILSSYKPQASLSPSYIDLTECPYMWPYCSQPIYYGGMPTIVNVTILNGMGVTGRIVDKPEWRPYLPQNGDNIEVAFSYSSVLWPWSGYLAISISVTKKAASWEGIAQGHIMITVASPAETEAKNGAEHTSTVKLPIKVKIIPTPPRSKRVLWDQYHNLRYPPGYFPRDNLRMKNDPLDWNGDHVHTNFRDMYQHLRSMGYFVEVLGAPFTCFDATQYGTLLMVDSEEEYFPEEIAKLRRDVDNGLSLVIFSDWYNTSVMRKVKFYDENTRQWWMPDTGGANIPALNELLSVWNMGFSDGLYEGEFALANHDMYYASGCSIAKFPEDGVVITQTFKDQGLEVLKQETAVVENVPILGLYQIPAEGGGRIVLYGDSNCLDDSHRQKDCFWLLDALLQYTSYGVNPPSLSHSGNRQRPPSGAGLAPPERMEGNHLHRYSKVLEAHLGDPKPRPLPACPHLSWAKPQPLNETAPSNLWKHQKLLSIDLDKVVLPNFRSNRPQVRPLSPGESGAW
Experimental: (§1) Fluorogenic Peptide Assay for S1P Activity
S1P activity was measured fluorometrically with MCA-conjugated peptidyl substrates. Each reaction was carried out in 0.2 ml of assay buffer (25 mM Tris, 25 mM Mes, 25 mM acetic acid, and 1 mM CaCl2 adjusted to pH 8.0 with concentrated NaOH). Reactions contained MCA-peptide (final concentration 100 μM, added in 2 μl DMSO) and […] of purified S1P(983)-C. After incubation for 0.5-5 h at 37° C., each reaction was terminated by addition of 1 ml of ice-cold 5 mM sodium EDTA. The liberated 7-amino-4-methyl-coumarin (AMC) was measured with a Perkin-ElmerLS-30 luminescence spectrometer (360 nm excitation, 460 nm emission). A standard curve of fluorescence intensity was generated with different concentrations of AMC (Promega).
Similar substrates have been used to assay furin, prohormone convertases, and other subtilisin-related enzymes (Nakayama, 1997). […] The sequence of this peptide corresponds to the sequence at Site-B of S1P, which is known to be cleaved by S1P in an autocatalytic reaction. Fluorescence rose linearly with time for 5 h. […] This differs from the observations with furin and the prohormone convertases, whose pH optima are generally in the range of 6-7 (Nakayama, 1997).
The indicated fluorogenic peptide-MCA (100 μM) was incubated with 3 μg of purified S1P(983)-C at 37° C. for 5 h. The S1P activity of Ac-VFRSLK-MCA (SEQ ID NO:13, 930 pmol per min/mg protein) was set at 1.0, and the activity of the other substrates was expressed relative to this value. Each value represents the average of duplicate incubations, which varied from each other by <10%.

purified S1P(983)-C [2] = target: T1, purified S1P(983)-C; test: Effect of protease inhibitors on S1P(983)-C mediated cleavage of Ac-VFRSLK-MCA; format: biochemical, hamster; details: for inhibition of S1P(983)-C: result in words
Experimental: as §1
S1P activity was measured fluorometrically with MCA-conjugated peptidyl substrates. […] After incubation for 0.5-5 h at 37° C., each reaction was terminated by addition of 1 ml of ice-cold 5 mM sodium EDTA. The liberated 7-amino-4-methyl-coumarin (AMC) was measured with a Perkin-ElmerLS-30 luminescence spectrometer (360 nm excitation, 460 nm emission). A standard curve of fluorescence intensity was generated with different concentrations of AMC (Promega).

[3] = 3 mM, 100 μM Ac-VFRSLK-MCA, 37° C., 5 h
[4] = 1 mM, 100 μM Ac-VFRSLK-MCA, 37° C., 5 h
[5] = 10 mM, 100 μM Ac-VFRSLK-MCA, 37° C., 5 h
[6] = 0.0003 mM, 100 μM Ac-VFRSLK-MCA, 37° C., 5 h

Relative Activity (purified S1P(983)-C [1]): < 0.1 | cleavage of the peptide (purified S1P(983)-C [1]): did not cleave
Compound: CC(=O)N[C@H](C(=O)N[C@@H](Cc1ccccc1)C(=O)N[C@@H](CCCNC(=N)N)C(=O)N[C@@H](CO)C(=O)N[C@@H](CCCNC(=N)N)C(=O)N[C@@H](CCCNC(=N)N)C(=O)Nc1ccc2c(C)cc(=O)oc2c1)C(C)C [Ac-VFRSRR-MCA, Ac-Val-Phe-Arg-Ser-Arg-Arg-MCA] (Ac-VFRSRR-{AMC})

Relative Activity (purified S1P(983)-C [1]): < 0.1 | cleavage of the peptide (purified S1P(983)-C [1]): did not cleave | cleavage of the peptide (purified S1P(983)-C [1]; listed as RVRR-MCA): does not cleave
Compound: Cc1cc(=O)oc2cc(NC(=O)[C@H](CCCNC(=N)N)NC(=O)[C@H](CCCNC(=N)N)NC(=O)[C@@H](NC(=O)[C@H](CCCNC(=N)N)NC(=O)OC(C)(C)C)C(C)C)ccc12 [Boc-RVRR-MCA, Boc-Arg-Val-Arg-Arg-MCA] (Boc-RVRR-{AMC})

AMC Liberated (purified S1P(983)-C [2]; [3]): 609 pmol/tube | AMC Liberated (purified S1P(983)-C [2]; 30 mM, 100 μM Ac-VFRSLK-MCA, 37° C., 5 h): 305 pmol/tube | remaining activity at 3000 µM (purified S1P(983)-C [2]; pH 8, 3 mM, 100 μM Ac-VFRSLK-MCA, 37° C., 5 h, read-out: AMC Liberated, % control): 73% | remaining activity at 30000 µM (purified S1P(983)-C [2]; pH 8, 30 mM, 100 μM Ac-VFRSLK-MCA, 37° C., 5 h, read-out: AMC Liberated, % control): 36% | inhibition of S1P(983)-C (purified S1P(983)-C [2]): partially inhibited
Compound: O=C(O)CN(CCOCCOCCN(CC(=O)O)CC(=O)O)CC(=O)O [EGTA]

Compound: CC(=O)N[C@@H](CC(C)C)C(=O)N[C@@H](CC(C)C)C(=O)N[C@H](C=O)CCCNC(=N)N [Leupeptin]
AMC Liberated (purified S1P(983)-C [2]; [4]): 754 pmol/tube | remaining activity at 1000 µM (purified S1P(983)-C [2]; pH 8, 1 mM, 100 μM Ac-VFRSLK-MCA, 37° C., 5 h, read-out: AMC Liberated, % control): 90% | inhibition of S1P(983)-C (purified S1P(983)-C [2]): resistant

Compound: O=S(=O)(F)Cc1ccccc1 [PMSF, phenylmethylsulfonyl fluoride]
AMC Liberated (purified S1P(983)-C [2]; [4]): 853 pmol/tube | AMC Liberated, % control (purified S1P(983)-C [2]; [4]): 102 % control | AMC Liberated (purified S1P(983)-C [2]; [5]): 690 pmol/tube | AMC Liberated, % control (purified S1P(983)-C [2]; [5]): 82 % control | inhibition of S1P(983)-C (purified S1P(983)-C [2]): resisted

Compound: NCCc1ccc(S(=O)(=O)F)cc1 [Pefabloc ®]
AMC Liberated (purified S1P(983)-C [2]; [4]): 731 pmol/tube | AMC Liberated, % control (purified S1P(983)-C [2]; [4]): 87 % control | AMC Liberated (purified S1P(983)-C [2]; [3]): 366 pmol/tube | AMC Liberated, % control (purified S1P(983)-C [2]; [3]): 44 % control | AMC Liberated (purified S1P(983)-C [2]; [5]): 60 pmol/tube | AMC Liberated, % control (purified S1P(983)-C [2]; [5]): 7 % control | inhibition of S1P(983)-C (purified S1P(983)-C [2]): inhibited by high concentrations

Compound: CC(C)CC(=O)N[C@H](C(=O)N[C@H](C(=O)N[C@@H](CC(C)C)[C@@H](O)CC(=O)N[C@@H](C)C(=O)N[C@@H](CC(C)C)[C@@H](O)CC(=O)O)C(C)C)C(C)C [Pepstatin] (Isovaleryl-VV[Sta]A[Sta]-OH)
AMC Liberated (purified S1P(983)-C [2]; 0.01 mM, 100 μM Ac-VFRSLK-MCA, 37° C., 5 h): 798 pmol/tube | remaining activity at 10 µM (purified S1P(983)-C [2]; pH 8, 0.01 mM, 100 μM Ac-VFRSLK-MCA, 37° C., 5 h, read-out: AMC Liberated, % control): 95% | inhibition of S1P(983)-C (purified S1P(983)-C [2]): resistant

Compound: Aprotinin
AMC Liberated (purified S1P(983)-C [2]; [6]): 745 pmol/tube | AMC Liberated, % control (purified S1P(983)-C [2]; [6]): 89 % control | inhibition of S1P(983)-C (purified S1P(983)-C [2]): resistant

Compound: calcium
calcium concentrations at which the reaction was inhibited (purified S1P(983)-C [2]): above 3 mM | effect of omission of calcium on the enzyme reaction (purified S1P(983)-C [2]; omission during purification and in the assay buffer): not affected
